Assay results: patent US20100210554A1, “THERAPEUTIC USES OF GASTRIN- 1 AND G- PEN-GRGDSPCA” (priority 2007, published 2010)

How the values were obtained:
HIV-1IIIB = assay: HIV-1 antiviral assay in CEM-SS cells (MTS readout)
HCMV strain AD169 = assay: HCMV plaque formation assay in MRC-5 cells; conditions: for inhibition of HCMV plaque formation as compared to the virus control experiment: 10 micrograms per ml, 7-10 days
IL-5 spleen cells = assay: Th1/Th2 cytokine profiling assay: IL-5; assay type: cell-based, Balb/c mice; conditions: 10 micrograms per ml; Ovalbumin restimulation; 72 hours
Description: (§1) The Balb/c mice (originated in 1923, it is a popular strain and is used in many different research disciplines. Also classified as an inbred from the production of 20 or more successive brother-sister matings, the Balb/c mouse is albino and small in size) were immunized on Days 1, 15, and 29 with Ovalbumin (Ovalbumin is the main protein found in egg white, commonly used to stimulate an immunological reaction in test animals) in PBS (5 micrograms/injection). On day 50, spleens of the mice were harvested (3 weeks after last boost with Ovalbumin). […] Thereafter, additional Ovalbumin was added to the cells at 10 micrograms/ml for in vitro restimulation of the cells. 72 hours later, cell supernatants were harvested and assayed using the Becton Dickinson Mouse Th1/Th2 Cytokine CBA Kit. This kit can be used to measure Interleukin-2 (IL-2), Interleukin-4 (IL-4),
(§2) Interleukin-5 (IL-5), Interferon-γ (IFN-γ), and Tumor Necrosis Factor-α (TNF-α) protein levels in a single sample. The kit performance has been optimized for analysis of physiologically relevant concentrations (pg/ml levels) of specific cytokine proteins in tissue culture supernatants and serum samples.

IL-4 spleen cells = assay: Th1/Th2 cytokine profiling assay: IL-4; assay type: cell-based, Balb/c mice; conditions: 10 micrograms per ml; Ovalbumin restimulation; 72 hours
Description: as §1, §2

IFNγ spleen cells = assay: Th1/Th2 cytokine profiling assay: IFNγ; assay type: cell-based, Balb/c mice; conditions: 10 micrograms per ml; Ovalbumin restimulation; 72 hours
Description: as §1, §2

[1] = tested on: hepatitis B virus (HBV) ayw strain; assay: HBV experimental assay system (HepG2-2.2.15, TaqMan PCR of secreted HBV DNA); assay type: cell-based; conditions: 10 micrograms per ml, six days
[2] = tested on: Primary Human endothelial cells (HUVEC); assay: Endothelial cell migration assay; conditions: 10 micrograms per ml, 22 hours
Description: Primary Human endothelial cells (HUVEC) were seeded in insert chambers with 3 micrometer pore size of multi-transwell plate for 6 hours at 37° C. in Endothelial Cell Basal Medium (EBM) supplemented with 0.1% bovine serum albumin. Thereafter, designated concentration of testing peptides—10 micrograms per ml—was added in duplicate wells. The endothelia were allowed to migrate for 22 hours at 37° C., then, migrated cells were fixed and stained with Hoechst 33342 dye. Images of 3 fields per insert were taken and the number of migrated cells per field were quantified using the ImageProPlus software. Data were analyzed for the average number of the migrated cells and standard deviation of six data points for each treatment condition. […] Statistic p values were computed using the Student's t-test.

IL-2 spleen cells = assay: Th1/Th2 cytokine profiling assay: IL-2; assay type: cell-based, Balb/c mice; conditions: 10 micrograms per ml; Ovalbumin restimulation; 72 hours
Description: as §1, §2

HUVEC = assay: Endothelial tube formation assay; conditions: 10 micrograms per ml, 20 hours, combination peptide 1:peptide 2 0.95 mole:1.05 mole
Description: The endothelial tube formation assay is based on the ability of endothelial cells to form three-dimensional capillary-like tubular structures when cultured on a gel of basement membrane extract. […] Pre-labeled HUVEC with Calcein AM were seeded in a 96-well culture plate coated with extracellular metrix (Chemicon international Cat. ECM625) and treated with test peptides—10 micrograms per ml—in full growth medium. Positive control was vehicle only. The endothelial cells were allowed to form tubes foe 20 hours and were then examined under an inverted fluorescent microscope. Duplicate wells for each treatment were photographed and quantitatevily analyzed for an average tubule length using image analysis software ImageProPlus. Raw data were expressed as average tubule lengths in pixels ±standard deviation. Statistic p values were computed using the Student's t-test.

TNF-a spleen cells = assay: Th1/Th2 cytokine profiling assay: TNF-a; assay type: cell-based, Balb/c mice; conditions: 10 micrograms per ml; Ovalbumin restimulation; 72 hours
Description: as §1, §2

Row | Compound | antiviral activity of positive control compounds (HIV-1) (HIV-1IIIB) | antiviral activity of positive control compound (HCMV) (HCMV strain AD169; positive control) | IL-5 spleen cells; TH2 response (% of control) (IL-5 spleen cells) | IL-4 spleen cells; TH2 response (% of control) (IL-4 spleen cells) | IFNγ spleen cells; TH1 response (% of control) (IFNγ spleen cells) | inhibition of HBV replication as compared to the virus control infection [1] | inhibition of the migration of human endothelial cells [2] | IL-2 spleen cells (% of control) (IL-2 spleen cells) | inhibition of the tube formation of endothelial cells (HUVEC) | inhibition of HCMV plaque formation as compared to the virus control experiment (HCMV strain AD169) | TNF-a spleen cells; TH1 response (% of control) (TNF-a spleen cells)
1 | Cc1cn([C@H]2C[C@H](N=[N+]=[N-])[C@@H](CO)O2)c(=O)[nH]c1=O [AZT] | expected levels of antiviral activity | – | – | – | – | – | – | – | – | – | –
2 | Nc1nc(O)c2ncn(COC(CO)CO)c2n1 [Ganciclovir, reference compound] | – | expected levels of antiviral activity | – | – | – | – | – | – | – | – | –
3 | CC(C)(C)NC(=O)[C@@H]1CN(Cc2cccnc2)CCN1C[C@@H](O)C[C@@H](Cc1ccccc1)C(=O)N[C@H]1c2ccccc2C[C@H]1O [indinavir] | expected levels of antiviral activity | – | – | – | – | – | – | – | – | – | –
4 | Gly-Pen-Gly-Arg-Gly-Asp-Ser-Pro-Cys-Ala-OH [peptide 2] | – | – | 55.0 % of control | 117.2 % of control | 77.3 % of control | 23.9% | 51% | 110.7 % of control | 22% | did not inhibit | 117.6 % of control
5 | Pyr-Gly-Pro-Trp-Leu-Glu-Glu-Glu-Glu-Glu-Ala-Tyr-Gly-Trp-Met-Asp-Phe-NH2 [peptide 1] | – | – | 61.2 % of control | 61.5 % of control | 52.4 % of control | 17.4% | 30% | 101.6 % of control | 35% | did not inhibit | 106.3 % of control
